Tested on: Myocaridal infarct size
Assay: Myocardial infarct size after 90 minute LAD occlusion and reperfusion in anaesthetized dogs (ex vivo TTC / Evans blue dual perfusion)
Parameters: species or system Male beagle dogs
Conditions: for % Area at Risk * Infarcted: 10 mg/kg intravenously over five minutes beginning fifteen minutes prior to reperfusion, 90 minute LAD occlusion, infarct quantified 24 hours after occlusion, means ± standard error
Protocol: Male beagle dogs (10-12 kg) were anaesthetized with pentobarbital sodium, intubated, and ventilated with room air via a Harvard respirator. Catheters for infusion and arterial blood pressure measurements were implanted in the left jugular vein and left carotial artery. A thoracotomy was performed at the fourth intercostal space, the heart suspended in a percardial cradle and the left anterior descending artery (LAD) isolated just below the first major diagonal branch. An electromagnetic flow probe was placed on LAD. A 90 minute occlusion of the LAD was produced by placing a snare of 1/0 silk sutre distel to the flow probe. Treatment was initiated intravenously fifteen minutes prior to release of this snare occlusion and continued for 45 minutes after release. The thoracotomy was closed, and the animals were allowed to recover from the surgical procedures. The animals were reanaesthetized 24 hours after the occlusion, and the flow in the LAD reassessed. Then the heart was removed for post mortem quantification of infarct size.
Three groups of dogs were evaluated. Group 1 consisted of saline controls. Group 2 were administered allopurinol and group 3 were administered oxypurinol. Allopurinol and oxypurinol were dissolved, separately, in O.I.N. sodium hydroxide and back-titrated to pH 9.3. The formulations were adminstered intravenously over five minutes beginning fifteen minutes prior to reperfusion.
Myocaridal infarct size was quantified by an ex vivo dual reperfusion technique. Cannulas were inserted into the LAD immediately distel to the site of occlusion and into the aorta above the coronary ostia. The LAD coronary bed that was perfused with 1.5% triphenyl tetrazolium hydrochloride (TTC) in 0.02 M potassium phosphate buffer, pH 7.4. The aorta was perfused in a retrograde manner with 0.5% Evans blue dye. Both regions ere perfused with their respective stains at a constant pressure of 100 mm mercury for five minutes. The heart was cut into 8 mm slices perpendicular to the apex-base axis. The area of the left ventrical at risk of infarction due to aatomical dependence on the LAD for blood flow is identified by the lack of Evans blue in this region. The region of infarcted myocardium within the area was demarcated by the lack of staining of the tissue when perfused with TTC due to a loss of dehydrogenase enzymes.
The transverse ventricular sections were traced carefully on to clear acrylic overlays to provide a permanent record of infarcted methology and to allow planimetric confirmation of infarct size. Ventricular sections then were trimmed of right ventricular muscle, valvular, and fatty tissue. Total left ventricular, area at risk, and infarct was separated by careful dissection and weighted. Infarct size was expressed as a percentage of the anatomic area at risk. […]

Row | Compound | Reduction of area at risk (infarcted) compared with saline and allopurinol (10 mg/kg i.v. fifteen minutes prior to reperfusion, significance criterion p less than 0.05 (ANOVA, Bonferroni)) | % Area at Risk * Infarcted | Reducing cellular injury when administered after ischemia (and before reperfusion) (administered after ischemia and before reperfusion, summary statement)
1 | O=c1[nH]c(=O)c2c[nH]nc2[nH]1 [Oxypurinol, 4,6-dihydroxypyrazola(3,4-d)pyrimidine] | significantly reduced | 19.0 ± 1.7% | effective
2 | Oc1ncnc2[nH]ncc12 [Allopurinol] |  | 43.1 ± 6.1% | 
